Values of other authors, collected in patent US20090312688A1, “IONTOPHORESIS DRUG DELIVERY FORMULATION PROVIDING ACCEPTABLE SENSATION AND DERMAL ANESTHESIA” (Vyteris, Inc., priority 2005, published 2009).

Details: iontophoresis in vitro across human skin

cumulative delivery relative to lidocaine	SMILES
slightly greater delivery	CCCN(CC)C(CC)C(=O)Nc1c(C)cccc1C (stereo not drawn) [etidocaine]
slightly greater delivery	CCCNC(C)C(=O)Nc1ccccc1C (stereo not drawn) [prilocaine]
slightly greater delivery	CCN(CC)CCOC(=O)c1ccc(N)cc1 [procaine]
